From ChEMBL document CHEMBL5465560, “Selectivity Literature for EUbOPEN Chemogenomic Library” (2024) come the findings set out here.

In assay [1] the target is Ephrin type-A receptor 5 (Homo sapiens) (UniProt P54756). Kind of assay: Selectivity interaction (Upstate Kinase Profiler service (Millipore)) EUB0000056c EPHA5. The following applies: at 1 µM.
Assay [2] deals with Tyrosine-protein kinase FRK (Homo sapiens) (UniProt P42685). Kind of assay: Selectivity interaction (KinaseProfiler screening (Millipore)) EUB0000601a FRK. The following applies: at 3 µM.
Chain of Tyrosine-protein kinase FRK (Homo sapiens) (P42685 whole entry): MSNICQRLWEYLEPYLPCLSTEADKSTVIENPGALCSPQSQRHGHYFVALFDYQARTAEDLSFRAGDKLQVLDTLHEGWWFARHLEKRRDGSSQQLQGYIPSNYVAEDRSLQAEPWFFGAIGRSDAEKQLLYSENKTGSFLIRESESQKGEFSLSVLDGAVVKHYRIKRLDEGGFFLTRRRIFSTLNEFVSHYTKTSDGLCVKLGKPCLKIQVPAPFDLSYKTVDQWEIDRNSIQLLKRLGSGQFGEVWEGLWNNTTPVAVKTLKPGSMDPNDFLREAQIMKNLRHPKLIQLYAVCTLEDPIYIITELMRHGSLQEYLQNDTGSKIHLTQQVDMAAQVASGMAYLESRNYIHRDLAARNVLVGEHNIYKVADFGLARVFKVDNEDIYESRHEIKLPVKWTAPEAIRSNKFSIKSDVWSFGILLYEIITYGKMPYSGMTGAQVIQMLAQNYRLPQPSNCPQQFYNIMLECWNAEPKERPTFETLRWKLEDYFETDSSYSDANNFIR
Assay [3] addresses T1, SNF-related serine/threonine-protein kinase (Homo sapiens) (UniProt Q9NRH2).
T1 sequence (whole entry): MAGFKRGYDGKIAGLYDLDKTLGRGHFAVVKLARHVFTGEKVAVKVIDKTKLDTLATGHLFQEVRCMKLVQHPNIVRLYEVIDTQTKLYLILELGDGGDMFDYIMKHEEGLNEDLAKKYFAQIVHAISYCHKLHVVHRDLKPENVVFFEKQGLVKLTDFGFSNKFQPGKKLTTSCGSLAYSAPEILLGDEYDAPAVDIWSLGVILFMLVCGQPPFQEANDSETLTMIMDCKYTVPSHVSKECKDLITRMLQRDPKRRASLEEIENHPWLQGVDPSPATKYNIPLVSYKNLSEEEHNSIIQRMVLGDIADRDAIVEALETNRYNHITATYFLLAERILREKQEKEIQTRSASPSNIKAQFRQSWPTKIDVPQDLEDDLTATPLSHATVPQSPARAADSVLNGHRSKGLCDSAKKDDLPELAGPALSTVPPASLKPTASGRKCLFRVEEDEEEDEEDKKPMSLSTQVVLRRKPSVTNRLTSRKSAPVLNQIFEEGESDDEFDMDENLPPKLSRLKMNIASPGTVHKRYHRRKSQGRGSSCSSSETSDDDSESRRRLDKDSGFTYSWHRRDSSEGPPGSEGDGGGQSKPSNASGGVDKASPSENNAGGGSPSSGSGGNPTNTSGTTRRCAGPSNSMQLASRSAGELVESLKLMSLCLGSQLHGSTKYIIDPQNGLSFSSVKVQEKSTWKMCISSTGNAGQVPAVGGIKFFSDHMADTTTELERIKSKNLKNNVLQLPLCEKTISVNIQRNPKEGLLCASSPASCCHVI
Briefly: Selectivity interaction (KinomeScan (DiscoverX)) EUB0000092b SNRK. The note with it: at 10 µM.

For assay [4], the target named is Tyrosine-protein kinase JAK1 (Homo sapiens, UniProt P23458). Briefly: Selectivity interaction (KinomeScan (DiscoverX)) EUB0000655a JAK1. The note with it: at 10 µM.
Chain of Tyrosine-protein kinase JAK1 (P23458 whole entry): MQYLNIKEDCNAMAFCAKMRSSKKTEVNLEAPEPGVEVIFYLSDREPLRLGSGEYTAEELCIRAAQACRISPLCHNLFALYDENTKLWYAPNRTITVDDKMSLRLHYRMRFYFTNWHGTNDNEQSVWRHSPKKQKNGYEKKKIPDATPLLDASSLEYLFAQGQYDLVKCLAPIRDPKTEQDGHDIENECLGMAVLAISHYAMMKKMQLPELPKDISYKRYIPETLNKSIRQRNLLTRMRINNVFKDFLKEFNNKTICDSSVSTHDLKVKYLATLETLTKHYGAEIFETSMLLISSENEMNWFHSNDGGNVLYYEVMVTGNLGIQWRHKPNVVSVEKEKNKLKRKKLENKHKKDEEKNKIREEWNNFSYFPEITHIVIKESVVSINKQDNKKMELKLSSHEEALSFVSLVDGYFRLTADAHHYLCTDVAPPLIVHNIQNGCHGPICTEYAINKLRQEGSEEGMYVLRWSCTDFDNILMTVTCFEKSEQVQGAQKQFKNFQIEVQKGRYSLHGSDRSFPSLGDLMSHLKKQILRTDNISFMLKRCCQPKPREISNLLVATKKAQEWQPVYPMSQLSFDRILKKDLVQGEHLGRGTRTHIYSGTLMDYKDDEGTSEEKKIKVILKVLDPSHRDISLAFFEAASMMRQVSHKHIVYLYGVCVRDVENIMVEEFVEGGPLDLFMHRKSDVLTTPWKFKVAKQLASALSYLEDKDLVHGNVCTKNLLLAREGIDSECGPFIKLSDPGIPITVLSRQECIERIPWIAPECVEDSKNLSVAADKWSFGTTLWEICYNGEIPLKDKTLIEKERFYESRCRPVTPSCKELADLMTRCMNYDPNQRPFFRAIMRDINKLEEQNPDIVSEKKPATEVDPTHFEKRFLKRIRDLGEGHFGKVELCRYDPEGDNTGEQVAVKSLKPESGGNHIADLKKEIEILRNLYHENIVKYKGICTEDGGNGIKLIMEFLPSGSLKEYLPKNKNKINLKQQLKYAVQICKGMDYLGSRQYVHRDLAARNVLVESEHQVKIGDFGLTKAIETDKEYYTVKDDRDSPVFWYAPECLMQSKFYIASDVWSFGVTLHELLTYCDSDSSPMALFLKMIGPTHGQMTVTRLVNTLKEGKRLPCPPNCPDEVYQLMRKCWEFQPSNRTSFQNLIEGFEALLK
Assay [5] concerns the target T2, Mitogen-activated protein kinase kinase kinase 15 (Homo sapiens) (UniProt Q6ZN16).
T2 sequence (whole entry): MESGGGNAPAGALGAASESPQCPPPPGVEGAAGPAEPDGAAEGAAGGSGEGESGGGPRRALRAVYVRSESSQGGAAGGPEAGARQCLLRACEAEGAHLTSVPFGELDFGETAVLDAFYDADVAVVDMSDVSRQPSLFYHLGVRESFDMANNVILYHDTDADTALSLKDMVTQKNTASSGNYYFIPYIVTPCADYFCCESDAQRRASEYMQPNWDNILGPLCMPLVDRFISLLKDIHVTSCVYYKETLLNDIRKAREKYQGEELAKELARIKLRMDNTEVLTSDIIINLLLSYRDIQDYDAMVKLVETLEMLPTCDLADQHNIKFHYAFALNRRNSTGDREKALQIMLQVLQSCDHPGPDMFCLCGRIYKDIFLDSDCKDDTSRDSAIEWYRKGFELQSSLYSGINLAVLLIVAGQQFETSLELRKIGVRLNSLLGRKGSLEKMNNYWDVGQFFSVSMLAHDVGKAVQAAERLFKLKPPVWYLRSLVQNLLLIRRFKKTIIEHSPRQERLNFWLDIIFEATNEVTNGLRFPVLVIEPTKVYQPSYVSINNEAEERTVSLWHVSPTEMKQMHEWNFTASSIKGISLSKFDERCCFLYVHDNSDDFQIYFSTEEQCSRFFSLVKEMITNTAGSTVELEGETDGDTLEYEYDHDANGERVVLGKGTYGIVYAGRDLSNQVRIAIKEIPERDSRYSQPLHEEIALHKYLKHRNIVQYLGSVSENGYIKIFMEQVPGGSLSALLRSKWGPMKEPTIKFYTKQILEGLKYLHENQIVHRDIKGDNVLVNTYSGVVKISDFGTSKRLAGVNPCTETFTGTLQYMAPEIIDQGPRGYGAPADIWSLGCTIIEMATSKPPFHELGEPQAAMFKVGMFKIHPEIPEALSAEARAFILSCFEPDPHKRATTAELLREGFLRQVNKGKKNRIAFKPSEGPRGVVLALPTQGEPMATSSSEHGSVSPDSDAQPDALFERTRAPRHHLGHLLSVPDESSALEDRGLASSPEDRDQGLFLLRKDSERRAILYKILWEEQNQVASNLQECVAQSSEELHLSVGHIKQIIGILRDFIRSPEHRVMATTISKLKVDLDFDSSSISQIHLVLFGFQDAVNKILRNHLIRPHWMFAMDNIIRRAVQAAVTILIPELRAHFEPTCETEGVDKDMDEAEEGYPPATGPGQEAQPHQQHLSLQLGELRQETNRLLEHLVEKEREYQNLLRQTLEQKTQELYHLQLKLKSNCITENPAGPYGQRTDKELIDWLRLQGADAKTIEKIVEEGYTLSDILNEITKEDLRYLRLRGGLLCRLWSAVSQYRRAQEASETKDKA
Kind of assay: Selectivity interaction (KinomeScan (DiscoverX)) EUB0000666a MAP3K15. The following applies: at 10 µM.

Assay [6] deals with T3, Serine/threonine-protein kinase 17A (Homo sapiens) (UniProt Q9UEE5).
T3 sequence (whole entry): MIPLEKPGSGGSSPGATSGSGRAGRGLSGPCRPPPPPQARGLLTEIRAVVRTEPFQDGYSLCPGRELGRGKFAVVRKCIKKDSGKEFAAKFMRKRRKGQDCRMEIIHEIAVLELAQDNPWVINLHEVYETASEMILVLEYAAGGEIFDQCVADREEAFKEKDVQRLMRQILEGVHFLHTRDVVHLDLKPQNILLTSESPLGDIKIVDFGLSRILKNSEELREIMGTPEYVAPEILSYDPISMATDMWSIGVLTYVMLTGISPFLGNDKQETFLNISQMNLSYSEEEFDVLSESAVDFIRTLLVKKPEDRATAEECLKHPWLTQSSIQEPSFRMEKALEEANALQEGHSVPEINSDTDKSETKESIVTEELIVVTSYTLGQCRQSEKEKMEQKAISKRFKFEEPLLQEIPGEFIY
Kind of assay: Selectivity interaction (KinomeScan (DiscoverX)) EUB0000607a STK17A. The following applies: at 10 µM.

In assay [7] the target is NT-3 growth factor receptor (Homo sapiens, UniProt Q16288). Briefly: Selectivity interaction (KinomeScan (DiscoverX)) EUB0000229b NTRK3. The following applies: at 10 µM.
Chain of NT-3 growth factor receptor (Q16288 32-839 limits assumed): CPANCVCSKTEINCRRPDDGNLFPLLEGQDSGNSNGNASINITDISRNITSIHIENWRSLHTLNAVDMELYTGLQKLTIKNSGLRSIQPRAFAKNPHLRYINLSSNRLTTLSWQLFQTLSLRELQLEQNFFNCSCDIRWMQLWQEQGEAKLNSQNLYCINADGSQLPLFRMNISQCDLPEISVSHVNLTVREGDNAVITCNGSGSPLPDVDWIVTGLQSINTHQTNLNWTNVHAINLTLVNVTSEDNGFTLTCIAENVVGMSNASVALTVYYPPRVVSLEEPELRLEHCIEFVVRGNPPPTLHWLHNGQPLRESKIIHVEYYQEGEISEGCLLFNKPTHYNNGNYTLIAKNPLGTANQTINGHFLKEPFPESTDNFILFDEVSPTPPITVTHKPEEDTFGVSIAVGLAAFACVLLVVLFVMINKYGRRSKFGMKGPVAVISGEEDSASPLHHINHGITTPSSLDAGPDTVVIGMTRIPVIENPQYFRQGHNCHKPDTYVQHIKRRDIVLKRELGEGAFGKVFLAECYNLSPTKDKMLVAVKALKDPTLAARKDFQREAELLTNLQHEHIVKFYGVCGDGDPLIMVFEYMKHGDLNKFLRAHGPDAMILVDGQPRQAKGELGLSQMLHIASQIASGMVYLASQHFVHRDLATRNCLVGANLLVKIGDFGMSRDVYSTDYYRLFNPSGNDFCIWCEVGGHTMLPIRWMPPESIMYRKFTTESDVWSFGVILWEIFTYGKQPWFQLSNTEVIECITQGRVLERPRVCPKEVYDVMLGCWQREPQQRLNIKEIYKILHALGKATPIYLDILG
The subject of assay [8] is Epidermal growth factor receptor (Homo sapiens), P00533 [G719S]. The note with it: at 10 µM.
The target in assay [9] is Homeodomain-interacting protein kinase 3 (Homo sapiens, UniProt Q9H422). Kind of assay: Selectivity interaction (KinomeScan (DiscoverX)) EUB0000618a HIPK3. The following applies: at 10 µM.

Chain of Epidermal growth factor receptor (Homo sapiens), P00533 [G719S] (P00533 whole entry G719S): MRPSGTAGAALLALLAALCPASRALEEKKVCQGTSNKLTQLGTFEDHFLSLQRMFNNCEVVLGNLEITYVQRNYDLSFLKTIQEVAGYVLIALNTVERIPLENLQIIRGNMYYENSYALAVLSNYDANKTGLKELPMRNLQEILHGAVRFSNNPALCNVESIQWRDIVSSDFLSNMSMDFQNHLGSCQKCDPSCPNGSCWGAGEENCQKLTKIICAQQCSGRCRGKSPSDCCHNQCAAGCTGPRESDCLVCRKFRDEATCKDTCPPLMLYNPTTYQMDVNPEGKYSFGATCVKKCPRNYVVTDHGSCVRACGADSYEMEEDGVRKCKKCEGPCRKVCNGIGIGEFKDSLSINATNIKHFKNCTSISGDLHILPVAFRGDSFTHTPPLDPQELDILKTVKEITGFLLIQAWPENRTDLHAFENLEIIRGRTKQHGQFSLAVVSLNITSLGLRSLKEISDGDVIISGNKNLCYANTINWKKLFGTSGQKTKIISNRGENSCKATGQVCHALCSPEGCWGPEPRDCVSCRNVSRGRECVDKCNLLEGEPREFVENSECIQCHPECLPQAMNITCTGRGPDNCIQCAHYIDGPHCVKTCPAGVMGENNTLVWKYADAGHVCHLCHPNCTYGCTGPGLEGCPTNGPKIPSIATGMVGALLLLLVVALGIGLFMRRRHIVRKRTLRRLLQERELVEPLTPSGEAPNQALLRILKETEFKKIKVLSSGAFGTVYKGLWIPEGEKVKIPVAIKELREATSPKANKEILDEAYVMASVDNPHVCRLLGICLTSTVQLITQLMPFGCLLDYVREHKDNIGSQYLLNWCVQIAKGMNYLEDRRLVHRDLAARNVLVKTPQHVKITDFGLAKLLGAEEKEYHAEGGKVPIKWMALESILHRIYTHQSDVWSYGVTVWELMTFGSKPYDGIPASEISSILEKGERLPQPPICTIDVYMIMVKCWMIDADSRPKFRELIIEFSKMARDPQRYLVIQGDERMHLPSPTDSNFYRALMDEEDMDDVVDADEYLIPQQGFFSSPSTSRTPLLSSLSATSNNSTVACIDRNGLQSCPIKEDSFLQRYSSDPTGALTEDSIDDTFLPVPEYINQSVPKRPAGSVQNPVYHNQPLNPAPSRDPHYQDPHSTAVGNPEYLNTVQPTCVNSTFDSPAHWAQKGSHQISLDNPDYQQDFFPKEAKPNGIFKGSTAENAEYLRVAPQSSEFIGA
Chain of Ephrin type-A receptor 5 (Homo sapiens) (P54756 whole entry): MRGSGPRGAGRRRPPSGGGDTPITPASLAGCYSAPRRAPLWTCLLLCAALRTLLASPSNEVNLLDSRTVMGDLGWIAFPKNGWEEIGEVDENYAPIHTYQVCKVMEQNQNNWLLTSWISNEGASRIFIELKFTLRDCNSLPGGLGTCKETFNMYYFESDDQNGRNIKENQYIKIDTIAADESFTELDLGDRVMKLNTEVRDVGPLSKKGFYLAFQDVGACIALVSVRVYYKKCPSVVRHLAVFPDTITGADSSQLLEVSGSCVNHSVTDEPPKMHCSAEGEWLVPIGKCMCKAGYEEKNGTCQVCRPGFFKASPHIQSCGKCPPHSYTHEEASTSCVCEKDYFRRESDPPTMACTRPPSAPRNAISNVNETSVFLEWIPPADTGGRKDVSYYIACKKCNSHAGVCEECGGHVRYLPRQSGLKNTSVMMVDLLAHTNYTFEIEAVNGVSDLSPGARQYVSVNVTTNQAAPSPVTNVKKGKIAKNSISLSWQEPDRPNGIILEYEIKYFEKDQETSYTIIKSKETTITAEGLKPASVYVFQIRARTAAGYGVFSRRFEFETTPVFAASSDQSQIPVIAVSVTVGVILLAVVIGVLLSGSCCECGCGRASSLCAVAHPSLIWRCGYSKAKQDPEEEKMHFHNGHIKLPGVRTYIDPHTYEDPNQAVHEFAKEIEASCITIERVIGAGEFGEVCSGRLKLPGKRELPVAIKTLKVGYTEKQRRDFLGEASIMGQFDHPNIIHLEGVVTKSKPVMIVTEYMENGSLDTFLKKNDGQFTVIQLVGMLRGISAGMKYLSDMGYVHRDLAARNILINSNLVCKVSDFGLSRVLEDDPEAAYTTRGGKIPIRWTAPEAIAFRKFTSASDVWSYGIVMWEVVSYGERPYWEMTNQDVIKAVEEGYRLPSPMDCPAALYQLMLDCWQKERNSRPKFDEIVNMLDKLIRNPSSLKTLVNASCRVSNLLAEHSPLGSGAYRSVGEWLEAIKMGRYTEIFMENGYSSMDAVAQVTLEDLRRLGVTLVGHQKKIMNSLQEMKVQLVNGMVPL

In [1], `Cc1ccc(-c2ccc3c(ccc4sc5c(c43)NC[C@@H](C)NC5=O)n2)cn1` yielded a % of inhibition of 6%.
`CCc1cc(Nc2nccc(-c3c(-c4ccc(OC)c(C(=O)Nc5c(F)cccc5F)c4)nc4ccccn34)n2)c(OC)cc1N1CCC(N2CCN(S(C)(=O)=O)CC2)CC1` returned a % of inhibition in [2] of 97%.
Consider `CCC(=O)N1CCN(c2ccc(-n3c(=O)ccc4cnc5ccc(-c6cnc7ccccc7c6)cc5c43)cc2C(F)(F)F)CC1`, for which the % of control in [3] turned out to be 60%.
`CN(C)CCOc1ccc(-c2nc(-c3ccncc3)c(-c3ccc4c(c3)CC/C4=N\O)[nH]2)cc1`: the % of control in assay [4] is 0.5%.
In turn, `O=C(NOC[C@H](O)CO)c1ccc(F)c(F)c1Nc1ccc(I)cc1F` registered a % of control in assay [5] of 100%.
The compound `CNC(=O)Nc1ccc(-c2nc(N3CC4CCC(C3)O4)c3cnn(C4CCC5(CC4)OCCO5)c3n2)cc1` had a % of control in [6] of 100%.
`COc1cc(N(C)c2ccnc3ccc(C(F)(F)F)cc23)cc(OC)c1OC` registered a % binding in assay [7] of 100%.
As to `COCC(=O)NC/C=C/c1ccc2ncnc(Nc3ccc(Oc4ccc(C)nc4)c(C)c3)c2c1` [CP-724714], the % of control in assay [8] worked out at 0%.
Take `O[C@H]1CC[C@H](Nc2ncc3nc(Nc4c(F)cc(F)cc4F)n([C@H]4CCOC4)c3n2)CC1`: the % of control in assay [9] came out at 95%.
